In one data set the target is T1, native UBA1 (Homo sapiens, UniProt P22314).
T1 construct: endogenous in cells; host or cells: HeLa cell lysate
T1 sequence (P22314 1-1058): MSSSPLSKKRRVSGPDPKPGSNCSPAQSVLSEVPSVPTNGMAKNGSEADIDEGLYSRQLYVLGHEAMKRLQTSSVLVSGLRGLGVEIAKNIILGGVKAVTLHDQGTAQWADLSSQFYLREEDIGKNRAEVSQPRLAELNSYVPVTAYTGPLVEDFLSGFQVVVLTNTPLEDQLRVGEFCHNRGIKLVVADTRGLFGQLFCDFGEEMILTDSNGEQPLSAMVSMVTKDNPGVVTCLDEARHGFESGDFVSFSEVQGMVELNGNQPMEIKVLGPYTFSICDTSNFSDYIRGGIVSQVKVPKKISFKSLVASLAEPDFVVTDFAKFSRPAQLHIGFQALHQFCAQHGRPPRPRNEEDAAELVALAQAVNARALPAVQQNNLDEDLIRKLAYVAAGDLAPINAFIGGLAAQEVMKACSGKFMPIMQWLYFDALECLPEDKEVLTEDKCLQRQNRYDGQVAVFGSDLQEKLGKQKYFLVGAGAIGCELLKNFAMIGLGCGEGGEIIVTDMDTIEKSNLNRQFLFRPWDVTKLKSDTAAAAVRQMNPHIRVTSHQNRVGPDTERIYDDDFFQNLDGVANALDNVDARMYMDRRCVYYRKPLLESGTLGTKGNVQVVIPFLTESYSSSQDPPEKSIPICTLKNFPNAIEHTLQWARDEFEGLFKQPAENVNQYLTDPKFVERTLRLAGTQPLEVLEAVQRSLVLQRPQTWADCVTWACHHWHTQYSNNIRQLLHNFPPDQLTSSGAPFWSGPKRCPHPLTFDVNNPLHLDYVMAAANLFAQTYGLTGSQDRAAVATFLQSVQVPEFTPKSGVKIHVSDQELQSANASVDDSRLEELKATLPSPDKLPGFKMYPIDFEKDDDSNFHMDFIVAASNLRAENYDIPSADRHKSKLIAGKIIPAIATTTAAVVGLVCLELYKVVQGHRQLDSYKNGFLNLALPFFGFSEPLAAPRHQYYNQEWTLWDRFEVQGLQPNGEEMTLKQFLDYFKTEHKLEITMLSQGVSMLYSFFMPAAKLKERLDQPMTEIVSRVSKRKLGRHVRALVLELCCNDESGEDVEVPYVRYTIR
The data set is described as follows: Streptavidin-biotin pull-down from HeLa cell lysate, western blot for UBA1. In kind it is binding. The following applies: biotinylated peptide. As for the experimental part:
(§1) Streptavidin-biotin pull-down assays: For recombinant protein pull-downs, 10 pmol recombinant human UBA1 was incubated with 5 nmol C-terminally biotinylated SAH-UBE2A or DMSO vehicle control in a total volume of 1 mL binding buffer (50 mM NaCl, 20 mM HEPES, pH 7.4, 5 mM DTT) for 1.5 hours at 4° C. 30 μL of pre-equilibrated streptavidin agarose beads were then added and incubated for an additional 1.5 hours at 4° C. The beads were pelleted by centrifugation and washed three times with NP-40 buffer (20 mM HEPES, pH 7.4, 50 mM NaCl, 5 mM DTT, 0.5% [v/v] NP-40) before eluting the protein sample from the beads by heating at 70° C. for 10 min in 3×SDS loading buffer. Samples were subjected to electrophoresis and silver staining (Pierce 24612). […] Proteins were separated by SDS-PAGE gel electrophoresis and detected by western blot against UBE1 (Abcam ab34711). […] Conjugation of ubiquitin to E2 by E1 is monitored by conversion of free E2 (17 kDa) to E2˜ubiquitin conjugate (26 kDa). Quantitation of percent inhibition was calculated from densitometry of silver stain images. Error bars represent ±1 SEM calculated from three independent experiments.
(A western blot detects proteins with antibodies after separation by electrophoresis.)

Data set [1] has as its target T2, UBA1 (Homo sapiens, UniProt P22314).
T2 sequence (P22314 1-1058): T1 sequence (P22314 1-1058)
The data set can be described thus: Streptavidin-biotin pull-down with recombinant protein. Conditions: biotinylated peptide, silver stain. In kind it is binding. As for the experimental part:
as §1

Data set [2] concerns the target T2, UBA1. The data set can be described thus: Hydrogen-deuterium exchange mass spectrometry with E1. Conditions: 10 s labeling. In kind it is binding. The procedure: HXMS analysis: Hydrogen-deuterium exchange mass spectrometry (HXMS) experiments were performed as described (Barclay, L. A. et al. Inhibition of Pro-apoptotic BAX by a noncanonical interaction mechanism. Molecular Cell 57, 873-886, doi: 10.1016/j.molcel.2015.01.014 (2015)). SAH-UBE2A was incubated alone or with the indicated molar ratio of recombinant human UBA1, UBE2D2, or vehicle control for ten minutes on ice, in buffer containing 50 mM NaCl, 5 mM MgCl2, 500 nM ubiquitin, 20 mM ATP, 5 mM DTT, 20 mM HEPES, pH 7.4. Deuterium labeling was initiated with an 18-fold dilution into D20 buffer (20 mM HEPES, 50 mM NaCl, pD 8). After 10 s of labeling, the labeling reaction was quenched with the addition of an equal volume of quenching buffer (0.8 M guanidinium chloride, 0.8% [v/v] formic acid). Samples were then injected and peptides were trapped intact and desalted on a VanGuard Pre-Column trap (2.1 mm×5 mm, ACQUITY UPLC BEH C18, 1.7 μm) for 3 min, eluted from the trap using a 5%-35% gradient of acetonitrile over 6 minutes at a flow rate of 65 μL/min, and then separated using an ACQUITY UPLC HSS T3, 1.8 μm, 1.0 mm×50 mm column on a Waters nanoACQUITY LC. The Waters Synapt G2Si mass spectrometer was operated in ion mobility mode and data analyzed. All mass spectra were processed using DynamX 3.0 (Waters Corporation). […]

The next data set deals with proteinase K (Parengyodontium album, UniProt P06873). The data set can be described thus: in vitro. The following applies: proteinase K (isolated protease) in Tris HCl buffer, pH 7.4.

These results are taken from patent US12358960B2, “Selective targeting of ubiquitin- and ubiquitin-like E1-activating enzymes by structurally-stabilized peptides” (Dana-Farber Cancer Institute, Inc., priority 2019, dated 2025).

“Also recorded” adds a separate entry of the source. Bridge positions count the residues as written; N and C are the ends. Square brackets hold non-standard residues; d marks the D form. Peptide text beside a SMILES is read from it. R8 = C=CCCCCCC[C@@](C)(N)C(=O)O; S5 = C=CCCC[C@](C)(N)C(=O)O; Nle = CCCC[C@H](N)C(=O)O

Chain of proteinase K (P06873 106-384): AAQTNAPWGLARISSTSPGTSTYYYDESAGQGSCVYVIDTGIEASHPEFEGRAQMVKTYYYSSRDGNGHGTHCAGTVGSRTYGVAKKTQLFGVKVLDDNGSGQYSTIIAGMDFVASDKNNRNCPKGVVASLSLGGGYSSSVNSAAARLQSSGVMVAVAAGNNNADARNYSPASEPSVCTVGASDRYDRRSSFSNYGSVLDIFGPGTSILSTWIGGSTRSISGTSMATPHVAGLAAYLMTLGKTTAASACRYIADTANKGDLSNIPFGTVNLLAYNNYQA
Experimental for proteinase K: Peptide Proteolysis Assay: In vitro proteolytic degradation was measured by LC/MS (Agilent 1200) using the following parameters: 20 μl injection, 0.6 mL flow rate, 20-min run time consisting of a gradient of water (0.1% formic acid) to 20%-80% acetonitrile (0.75% formic acid) over 15-min, 4-min wash to revert to starting gradient conditions, and 0.5-min post-time. The MSD set to scan mode with one channel at (M+2H)/2, ±1 mass units, one channel at (M+3H)/3, ±1 mass units, and the other at (M+4H)/4, ±1 mass units. Integration of each MSD signal yielded areas under the curve of >108 counts. Reaction samples were composed of 5 μl peptide in DMSO (1 mM stock) and 195 μl buffer consisting of 50 mM Tris HCl, pH 7.4. Upon injection of the zero time sample, 6 μl of 20 ng/μL proteinase K (New England Biolabs) was added, and the amount of intact peptide quantitated by serial injection over time. A plot of MSD area versus time yielded an exponential decay curve, and half-lives were determined by nonlinear regression analysis using Prism software (GraphPad).

Turning to `CCCC[C@H](NC(C)=O)C(=O)N[C@@H](CO)C(=O)N[C@H](C(=O)N1CCC[C@H]1C(=O)N[C@]1(C)CCCCCCC=CCCC[C@@](C)(C(=O)N[C@@H](Cc2ccccc2)C(=O)N[C@@H](CCCCN)C(=O)N[C@@H](CCCNC(=N)N)C(=O)N[C@@H](CC(C)C)C(=O)N[C@@H](CCC(N)=O)C(N)=O)NC(=O)[C@H](CCCNC(=N)N)NC(=O)[C@H](CCCC)NC(=O)[C@H](CC(C)C)NC(=O)[C@H](CCCNC(=N)N)NC(=O)[C@H](CCCNC(=N)N)NC(=O)[C@H](CCCNC(=N)N)NC1=O)[C@@H](C)O` [SAH-UBE2A-11, BSTPX1RRRLBRX2FKRLQ] (Ac-[Nle]STP[R8]RRRL[Nle]R[S5]FKRLQ-NH2; staple 5-12), the “direct binding to native UBA1 in HeLa cell lysate” value on native UBA1 was “direct binding of SAH-UBE2A to native UBA1”. The “direct binding to recombinant UBA1, streptavidin capture” value at UBA1 [1] is on record as “direct binding of SAH-UBE2A to UBA1”. Moreover, the “protection of peptide from deuterium uptake by UBA1” value at UBA1 [2] is “dose-dependently protected SAH-UBE2A from deuterium uptake; also recorded: dose-responsively binding to E1”. For the same molecule, the half-life (commonly the time in which the quantity being followed falls by half) at 25 µM on proteinase K was over 6 h.
